These results are taken from US20260138961A1, “MODULATORS OF MITOCHONDRIAL DNA REPLICATION” (Pretzel Therapeutics, Inc., priority 2022, published 2026).

The target in the test is T1, POLγA:R309C (Homo sapiens, UniProt P54098, R309C).
T1 sequence (P54098 1-1239 R309C): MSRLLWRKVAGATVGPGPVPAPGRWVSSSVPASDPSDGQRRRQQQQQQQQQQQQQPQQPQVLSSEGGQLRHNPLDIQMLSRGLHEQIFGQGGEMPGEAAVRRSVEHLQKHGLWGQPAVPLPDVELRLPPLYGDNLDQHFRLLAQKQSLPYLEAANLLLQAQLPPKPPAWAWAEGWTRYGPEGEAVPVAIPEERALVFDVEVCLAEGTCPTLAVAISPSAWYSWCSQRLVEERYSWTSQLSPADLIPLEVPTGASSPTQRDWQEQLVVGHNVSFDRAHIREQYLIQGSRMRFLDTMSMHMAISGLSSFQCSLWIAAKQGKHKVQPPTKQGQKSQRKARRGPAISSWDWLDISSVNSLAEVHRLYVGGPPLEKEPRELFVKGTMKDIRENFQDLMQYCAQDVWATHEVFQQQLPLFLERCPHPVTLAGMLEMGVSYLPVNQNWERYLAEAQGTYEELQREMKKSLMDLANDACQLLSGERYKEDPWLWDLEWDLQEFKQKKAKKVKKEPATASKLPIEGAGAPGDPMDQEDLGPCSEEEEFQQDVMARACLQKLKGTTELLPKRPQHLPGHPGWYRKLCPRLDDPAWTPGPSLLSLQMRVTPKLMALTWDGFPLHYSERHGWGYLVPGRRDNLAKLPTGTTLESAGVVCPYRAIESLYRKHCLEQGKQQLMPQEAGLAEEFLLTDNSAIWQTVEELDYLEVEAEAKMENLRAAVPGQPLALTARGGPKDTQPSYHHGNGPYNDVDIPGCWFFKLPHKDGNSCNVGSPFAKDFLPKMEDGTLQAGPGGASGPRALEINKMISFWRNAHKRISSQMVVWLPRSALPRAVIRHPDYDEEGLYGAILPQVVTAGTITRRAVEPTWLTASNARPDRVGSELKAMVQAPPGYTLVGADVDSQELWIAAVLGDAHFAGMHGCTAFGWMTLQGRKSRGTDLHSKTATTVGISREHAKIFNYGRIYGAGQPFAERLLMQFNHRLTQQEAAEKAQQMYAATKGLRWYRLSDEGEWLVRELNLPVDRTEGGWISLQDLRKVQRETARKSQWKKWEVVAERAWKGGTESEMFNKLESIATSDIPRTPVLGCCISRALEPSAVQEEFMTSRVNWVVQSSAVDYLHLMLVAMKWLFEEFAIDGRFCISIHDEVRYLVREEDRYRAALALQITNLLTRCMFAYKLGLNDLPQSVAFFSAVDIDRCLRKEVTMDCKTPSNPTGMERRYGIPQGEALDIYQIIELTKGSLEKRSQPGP
T1 sequence (Q9UHN1 1-485 partner): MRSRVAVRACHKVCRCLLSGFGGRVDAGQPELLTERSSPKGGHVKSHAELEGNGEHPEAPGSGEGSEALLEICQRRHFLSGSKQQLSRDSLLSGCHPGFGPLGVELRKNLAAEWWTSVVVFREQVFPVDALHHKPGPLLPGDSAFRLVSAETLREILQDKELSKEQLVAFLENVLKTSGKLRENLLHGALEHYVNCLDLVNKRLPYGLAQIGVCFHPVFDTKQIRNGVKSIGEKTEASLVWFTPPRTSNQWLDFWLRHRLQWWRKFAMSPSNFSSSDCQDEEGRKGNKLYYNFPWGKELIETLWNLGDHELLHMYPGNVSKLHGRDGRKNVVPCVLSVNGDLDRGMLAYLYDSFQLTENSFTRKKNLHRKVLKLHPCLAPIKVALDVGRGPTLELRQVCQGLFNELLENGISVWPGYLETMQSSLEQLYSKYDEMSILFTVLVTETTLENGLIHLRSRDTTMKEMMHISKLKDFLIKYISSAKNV
As to the kind of experiment: DNA polymerization assay, POLγA:R309C mutant. In kind it is biochemical. The following applies: stimulation of polymerase activity, primed M13mp18 ssDNA, 37° C. 2 hours. Here is the method:
DNA Polymerization Assay to Monitor Effects on Human Wildtype POLγ and Four Disease-Causing Mutant Variants of Human POLγ.
The ability of small molecules to stimulate the polymerase activity of POLγ was analyzed in a quantitative fluorescence SYBR Green I assay with fluorescence intensity (FI) readout.
In the presence of dNTPs, wild type human POLγ and mutant derivatives thereof were incubated with single-stranded, circular M13mp18 ssDNA hybridized to a short DNA oligonucleotide that functions as a primer for initiation of DNA synthesis. POLγ and mutant derivatives thereof will extend the primer and use the M13mp18 molecule as a template to synthesize long stretches of double-stranded DNA. SYBR Green I, which is a double-stranded DNA-binding dye, was used to quantify formation of double-stranded DNA in the reaction. When bound to double-stranded DNA, SYBR Green I fluorescence increases by up to 100-fold.
The assay was performed in the 384-well plate format. Upon addition of compounds, changes in double-stranded DNA synthesis activity can be monitored by following effects on fluorescent intensity.
The reactions also contained the accessory POLγB subunit, and the human mitochondrial single-stranded DNA binding protein (mtSSB).
The DNA template mixture used in the assay contained 0.5 nM primed M13 mp18 ssDNA, 400 nM mtSSB, 0.1 mM Tris-HCl (pH 8.0), 0.1 mM dNTP, 10 mM MgCl2, 0.1 mg/mL BSA, 1 mM TCEP solution, and 0.02% Triton X-100. The DNA template mixture for the wild type protein contained either 100 μM dNTP, 1 μM dNTP, or 0.1 μM dNTP, designated in Table 2 as 100 μM, 1 μM, and 0.1 μM, respectfully.
Microplates with compounds (0.1 μL in each well) to be tested in the assay were prepared from 10 mM compound stocks in 100% DMSO, and equal amounts of DMSO without any compound were added to positive and negative control wells.
The protein mixture was dispensed (5 μL into each well) into compound plates and incubated at 37° C. for 15 minutes. After incubation, 5 μL of the DNA template mixture was dispensed into each well. The plates were then incubated at 37° C. for 2 hours.
During incubation, a combined stop buffer and detection reagent solution was prepared. The buffer contained 25 mM EDTA (pH 8.0), 0.02% Triton X-100, and SYBR Green I [Invitrogen] diluted 10,000× (for fluorescent readout). EDTA will stop the enzymatic reaction by chelating magnesium ions.
As to `Cc1cnc(-c2cccc(NS(=O)(=O)c3cc(C)c(Cl)cc3C)c2)s1` [Example 21, 4-chloro-2,5-dimethyl-N-(3-(5-methylthiazol-2-yl)phenyl)benzenesulfonamide], the AC50 worked out at 1 µM.

For `Cc1ccc(C)c(S(=O)(=O)Nc2cccc(-c3nccs3)c2)c1` [Example 60], half-maximal activity (AC50) was put at 0.9 µM.

Take `CC[C@@H]1CCCN1C(=O)c1cccc(NS(=O)(=O)c2cc(C)c(Cl)cc2C)c1` [Example 65, (R)-4-chloro-N-(3-(2-ethylpyrrolidine-1-carbonyl)phenyl)-2,5-dimethylbenzenesulfonamide]: half-maximal activity (AC50) was put at 5 µM. On to `Cc1cc(S(=O)(=O)Nc2cccc(-c3cc(C4CC4)[nH]n3)c2)c(C)cc1Cl` [Example 64, 4-chloro-N-(3-(5-cyclopropyl-1H-pyrazol-3-yl)phenyl)-2,5-dimethylbenzenesulfonamide], for which the AC50 stood at 1 µM. In the case of `Cc1cc(-c2cccc(NS(=O)(=O)c3cc(C)c(Cl)cc3C)c2)n[nH]1` [Example 66, 4-chloro-2,5-dimethyl-N-(3-(5-methyl-1H-pyrazol-3-yl)phenyl)benzenesulfonamide], the AC50 turned out to be 12 µM. Compared with the last compound, the AC50 is about 12-fold higher. `Cc1csc(-c2cccc(NS(=O)(=O)c3cc(C)c(Cl)cc3C)c2)n1` [Example 20, 4-chloro-2,5-dimethyl-N-(3-(4-methylthiazol-2-yl)phenyl)benzenesulfonamide] displayed an AC50 of 1 µM. This AC50 is about 12-fold lower than that of the compound before. Turning to `Cc1cc(S(=O)(=O)Nc2cccc(-c3cc[nH]n3)c2)c(C)cc1Cl` [Example 68, N-(3-(1H-pyrazol-3-yl)phenyl)-4-chloro-2,5-dimethylbenzenesulfonamide], the AC50 came out at 7 µM. Under `Cc1cc2cc(NS(=O)(=O)c3cc(C)c(Cl)cc3C)ccc2[nH]1` [Example 184, 4-chloro-2,5-dimethyl-N-(2-methyl-1H-indol-5-yl)benzenesulfonamide] stands 8 µM; under `Cc1cc(S(=O)(=O)Nc2ccc3ccn(C(C)C)c3c2)c(C)cc1Cl` [Example 69, 4-chloro-N-(1-isopropyl-1H-indol-6-yl)-2,5-dimethylbenzenesulfonamide], 1 µM. As for `Cc1nc2ccc(NS(=O)(=O)c3cc(C)c(Cl)cc3C)cc2o1` [Example 70, 4-chloro-2,5-dimethyl-N-(2-methylbenzo[d]oxazol-6-yl)benzenesulfonamide], the concentration at half-maximal activity (AC50) came out at 51 µM.
